Values of other authors, collected in patent publication US8476249B2, “Method of treating thrombocytopenia” (GlaxoSmithKline LLC, priority 2010, dated 2013).

How the values were obtained:
[1] = specifically in the portal vein system
[2] = in vivo

thrombotic events [1]	Compound	occurrence of portal vein thrombosis [2]
associated with thrombotic events	CC1=NN(c2ccc(C)c(C)c2)C(=O)/C1=N\Nc1cccc(-c2cccc(C(=O)O)c2)c1O.NCCO.NCCO [eltrombopag, 3′-[(2Z)-[1-(3,4-dimethylphenyl)-1,5-dihydro-3-methyl-5-oxo-4H-pyrazol-4-ylidene]hydrazino]-2′-hydroxy-[1,1′-biphenyl]-3-carboxylic acid bis-(monoethanolamine)]	–
–	enoxaparin	reducing the occurrence of portal vein thrombosis
